Experimental data from patent US6080573A, “Enzymatic oxidation process” (Lever Brothers Company, Division of Conopco, Inc., priority 1996, dated 2000).

Columns and labels:
[1] = Dye transfer prevention: washing a coloured swatch in the presence of a white pick-up swatch with peroxidase; set-up: key to ΔE (colour difference): CIELAB colour difference ΔE vs control swatch without peptide; key to ΔL (whiteness): difference in CIELAB L* (lightness) vs control swatch; settings: for ΔE (colour difference) / ΔL (whiteness): pH 9, 30 minutes, 40° C., versus control swatch without peptide enhancer; for dye transfer prevention / effect on white swatch: result in words
Description: The potential of the enzymatic system to prevent dye transfer was assessed by washing a coloured swatch in the presence of a white pick-up swatch. The experiments were performed in 25 ml Phosphate buffer, pH 9, containing the two swatches of 5×5 cm. The experiments were performed using a partially purified peroxidase derived from an Hormographiella species. Experiments were performed in the presence of 12 ABTS units/ml. The fabrics were agitated in the wash solution (25 ml) for 30 minutes at 40° C. The fabrics were line dried and the reflectance spectra were measured using a Minolta spectrometer. The data thereby obtained was transferred to the CIELAB L*a*b* colour space parameters. In this colour space, L* indicates lightness and a* and b* are the chromaticity coordinates. The colour differences between the control swatch, without addition the peptide enhancer, and the swatches washed in the presence of different concentrations of peptide, were expressed as ΔE, calculated from the following equation: [formula]

[2] = system: peroxidase; test: Peroxidase bleach enhancement: bleaching of red beet solution; type: biochemical, Hormographiella species; settings: conditions as in example 3
Description: (§1) Dye bleach experiments were performed using a partially purified peroxidase derived from an Hormographiella species. The enzyme was purified by ultrafiltration from the fermentation broth, followed by ion-exchange chromatography using Q-Sepharose (Pharmacia) at pH 7. Enzyme activity is expressed as ABTS (2,2'-azino-bis(3-ethylbenzothiazoline-6-sulphonic acid) units. One ABTS unit represents the amount of enzyme which oxidizes ABTS, resulting in an increase of 1 optical density at 418 nm. Conditions for the activity assay were 2 mM ABTS, 1 mM H2 O2, 20 mM Tris, pH 9.
(§2) Bleaching experiments were conducted at 25° C. in 20 mM Phosphate buffer, set at pH 9. Added peroxidase activity was 60 ABTS units per millilitre. The peptide GGSCGYHYQHCGQG (one letter amino acid code) was added as a peroxidase enhancer at a concentration of 100 μM. The Reactive Black 5 concentration was 30 μM, and the H2 O2 concentration was 250 μM.
(§3) Bleaching of Reactive Black 5 was monitored by the decrease in optical density at 590 nm. The enhancing activity of the peptide was compared to that of the free amino acid tyrosine. As the peptide contains 2 tyrosine residues, 200 μM of the amino acid was added, as a comparison to 100 μM of peptide.
In order to study the selectivity of the peptide enhanced reaction, the bleaching of a red beet solution with the system was assayed. The extract of red beet is, as with dyes, susceptible the action of peroxidase enhancers. […] Experimental conditions are as in example 3.

[3] = system: peroxidase; test: Peroxidase bleach enhancement: bleaching of Reactive Black 5; type: biochemical, Hormographiella species; settings: pH 9, 25° C.; for OD reading at 590 nm (Reactive Black 5): tyrosine 200 μM or peptide 100 μM
Description: as §1, §2, §3

[4] = ELISA: binding of alkaline phosphatase-Reactive Red 6 conjugate (AP-RR6) to peptide-coated plates; settings: plates coated with 1 mg/ml peptide, p-nitro-phenyl-phosphate, 30 minutes
Description: The specific binding of peptide #1 (NH2-GGSCGYHYQHCGQG-COOH) to the dye Reactive Red 6 was measured (the peptide contains one disuphide bridge through the cysteine residues, sequence of the peptides is given in one letter amino acid codes).
(§4) For the detection of binding, the enzyme Alkaline Phosphatase (AP, 2.5 mg/ml) was conjugated with the reactive dye Reactive Red 6 (RR6, 1.25 mM), by incubation of the enzyme with the dye during 2 hours, at room temperature in Borate buffer, 0.1 M, 0.15 M NaCl, pH 8.5. The dye thereby becomes covalently linked to the amino groups of the enzyme by its triazine unit. Free dye was separated from the enzyme conjugate by gel filtration (PD-10 column, Pharmacia). Elisa plates (Polysorb, Nunc) were coated overnight with 100 μl of a 1 mg/ml peptide solution in Phosphate buffer, 150 mM NaCl, pH 7.4 (PBS). The peptide coated ELISA plates were blocked with 2% Bovine Serum Albumin (BSA) in PBS for 1 hour, room temperature. The Alkaline Phosphatase--RR6 conjugate (AP-RR6) was then incubated for 1 hour, room temperature, in incubation buffer (0.2 M Tris, 20 mM NaCl, 1% PEG 6000, 5% BSA). The plates were washed plates 3 times with wash buffer (0.2 M Tris, 60 mM Citrate, 0.1 M NaCl, 0.05% Tween) and 3 times with demineralized water. Bound Alkaline Phosphatase (AP) was then detected by incubation with the substrate p-nitro-phenyl-phosphate. […] As a control, Alkaline Phosphatase, not conjugated to the dye, was used.

[5] = system: Alkaline Phosphatase; test: ELISA control: binding of unconjugated Alkaline Phosphatase (AP) to peptide-coated plates; settings: control: Alkaline Phosphatase not conjugated to the dye; plates coated with 1 mg/ml peptide; 30 minutes
Description: as §4

Row | Compound | ΔE (colour difference) ([1]; 25 μM) | ΔL (whiteness) ([1]; 25 μM) | ΔE (colour difference) ([1]; 50 μM) | ΔL (whiteness) ([1]; 50 μM) | ΔE (colour difference) ([1]; 100 μM) | ΔL (whiteness) ([1]; 100 μM) | dye transfer prevention / effect on white swatch [1] | bleaching of red beet solution (optical density) ([2]; 0 minutes after incubation) | bleaching of red beet solution (optical density) ([2]; 2 minutes after incubation) | bleaching of red beet solution (optical density) ([2]; 4 minutes after incubation) | bleaching of red beet solution (optical density) ([2]; 6 minutes after incubation) | bleaching of red beet solution (optical density) ([2]; 8 minutes after incubation) | bleaching of red beet solution (optical density) ([2]; 10 minutes after incubation) | bleaching of red beet solution (optical density) ([2]; 12 minutes after incubation) | bleaching of red beet solution (optical density) ([2]; 14 minutes after incubation) | OD reading at 590 nm (Reactive Black 5) ([3]; 0 minutes after incubation) | OD reading at 590 nm (Reactive Black 5) ([3]; 2 minutes after incubation) | OD reading at 590 nm (Reactive Black 5) ([3]; 4 minutes after incubation) | OD 450 nm values, AP-RR6 [4] | OD 450 nm values, AP [5] | further results
1 | N[C@@H](Cc1ccc(O)cc1)C(=O)O [tyrosine] | 0.55 | -0.5 | 0.63 | -0.6 | 2.05 | -2.0 | darkening of the white swatch (negative ΔL) | 1.082 | 1.076 | 1.06 | 1.022 | 0.906 | 0.739 | 0.591 | 0.488 | 0.651 | 0.606 | 0.580 |  |  | OD reading at 590 nm (Reactive Black 5) ([3]; 6 minutes after incubation): 0.559; OD reading at 590 nm (Reactive Black 5) ([3]; 8 minutes after incubation): 0.540; OD reading at 590 nm (Reactive Black 5) ([3]; 10 minutes after incubation): 0.523; OD reading at 590 nm (Reactive Black 5) ([3]; 12 minutes after incubation): 0.507; OD reading at 590 nm (Reactive Black 5) ([3]; 14 minutes after incubation): 0.494
2 | Arg-Arg [Arg--Arg] |  |  |  |  |  |  |  |  |  |  |  |  |  |  |  |  |  |  | 0.09 | 0.003 | 
3 | Lys-Lys-Lys [Lys--Lys--Lys] |  |  |  |  |  |  |  |  |  |  |  |  |  |  |  |  |  |  | 0.31 | 0.023 | 
4 | NH2-GGSCGYHYQHCGQG-COOH (H-GGSCGYHYQHCGQG-OH; cysteine pairing not given here) [Peptide #1] | 2.46 | 2.40 | 2.85 | 2.80 | 3.62 | 3.50 | clear dye transfer prevention benefit, resulting in a lighter white swatch | 1.091 | 1.083 | 1.063 | 1.016 | 0.881 | 0.709 | 0.567 | 0.477 | 0.651 | 0.430 | 0.344 | 2.36 | 0.047 | reaction enhancement over tyrosine, red beet solution ([2]; result in words): there is not reaction enhancement of the peptide over tyrosine; OD reading at 590 nm (Reactive Black 5) ([3]; 6 minutes after incubation): 0.294; OD reading at 590 nm (Reactive Black 5) ([3]; 8 minutes after incubation): 0.263; OD reading at 590 nm (Reactive Black 5) ([3]; 10 minutes after incubation): 0.241; OD reading at 590 nm (Reactive Black 5) ([3]; 12 minutes after incubation): 0.227; OD reading at 590 nm (Reactive Black 5) ([3]; 14 minutes after incubation): 0.216; bleaching activity of the peroxidase in the presence of the peptide ([3]; result in words): enhanced bleaching activity
5 | Val-Gly-Ser-Glu (VGSE; printed: Val-Gly-Ser-Glu) [V--G--S--E] |  |  |  |  |  |  |  |  |  |  |  |  |  |  |  |  |  |  | 0.03 | 0.003 | 
